The source of these data is patent US20170363616A1, “PATTERNED NEUROMUSCULAR JUNCTIONS AND METHODS OF USE” (Los Alamos National Security, LLC, priority 2014, published 2017).

In assay [1] the test system is C2C12 skeletal myoblasts. As to the kind of experiment: Differentiation of C2C12 myoblasts to myotubes on graphene films or SiO2. Type of assay: cell-based, mouse. The procedure: C2C12 skeletal myoblasts (ATCC Cat. No. CRL 1772) were cultured on graphene films or SiO2 in high glucose DMEM supplemented with 10% fetal bovine serum (FBS) and 1% antibiotics. […] Cells were cultured for 5 days and stained with primary antibody MF20 (myosin heavy chain, MHC) overnight at 4° C., followed by goat anti-mouse secondary antibody and the nuclear stain 4′, 6-diamidino-2-phenylindole (DAPI) for 2 hours at 37° C. Cells were imaged with a fluorescent microscope and images were quantified using ImageJ 1.47d.
Fusion index was calculated as the ratio of the number of nuclei in myocytes with two or more nuclei versus the total number of nuclei. Cell density was determined by counting the number of nuclei in a particular area. Statistical analysis was performed using one-way analysis of variance and values are reported as mean±standard error of the mean.

The test system of assay [2] is NSC-34 motor neuron cells. As to the kind of experiment: Differentiation of NSC-34 motor neuron cells (neurite outgrowth). Type of assay: cell-based, mouse. As to conditions: IGF-1 added to Neurobasal differentiation media. The procedure: NSC-34 cells (Cellutions, Cat. No. CLU 140) are a hybrid cell line produced by fusion of motor neuron enriched embryonic mouse spinal cord cells with mouse neuroblastoma, resulting in a motor neuron-like cell. NSC-34 cells were grown in high glucose DMEM with 10% FBS and 1% antibiotics. […] In some examples, NSC-34 cells were cultured in Neurobasal medium with 50-100 ng/ml IGF-1. Cells were imaged with a fluorescent microscope and images were quantified using ImageJ 1.47d with the NeuronJ plugin.

The mark [3] stands for this setting: IGF-1 (50 ng/ml) added to differentiation medium, graphene films, vs differentiation medium alone.

Take insulin-like growth factor-1 [IGF-1]: in assay [1] (setting [3]), the cell density result is on record as “significantly increased”, the fusion index entry was “significantly increased” and the myotube formation entry is reported as “significantly increased”. In addition, the myotube formation result in assay [1] (increasing the amount of IGF-1 in the differentiation medium from 1-500 ng/ml) is reported as “increased myotube formation”. In assay [2], the “neurite length per neuron” value is reported as “significantly increased”, the “number of neurites per neuron” value is “did not affect” and the “sum of neurite length” value is recorded as “significantly increased”.
